Results as given in PubChem BioAssay (NCI).
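Step 1: Grow cells in 96-well plates. Step 2: Expose to compound for 48 hours at 5 concentrations. Step 3: Interpolate endpoints linearly; if unreached, use highest concentration. Definition used: TGI = concentration required for complete inhibition of growth.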

Tests used:
Assay in all cases: inhibition of tumour cell growth, NCI panel, 48 h
BT-549 breast = tested on: BT-549 breast
HOP-92 NSCLC = tested on: HOP-92 NSCLC
HCT-15 colon = tested on: HCT-15 colon
OVCAR-8 ovarian = tested on: OVCAR-8 ovarian
OVCAR-5 ovarian = tested on: OVCAR-5 ovarian
MCF7 breast = tested on: MCF7 breast
SK-MEL-5 melanoma = tested on: SK-MEL-5 melanoma
SN12C renal = tested on: SN12C renal
SF-268 CNS = tested on: SF-268 CNS
PC-3 prostate = tested on: PC-3 prostate
SNB-19 CNS = tested on: SNB-19 CNS
COLO 205 colon = tested on: COLO 205 colon
MDA-MB-231 breast = tested on: MDA-MB-231 breast
NCI-H522 lung = tested on: NCI-H522 lung
RPMI-8226 leukemia = tested on: RPMI-8226 leukemia
UO-31 renal = tested on: UO-31 renal
RXF 393 renal = tested on: RXF 393 renal
UACC-62 melanoma = tested on: UACC-62 melanoma
SK-MEL-2 melanoma = tested on: SK-MEL-2 melanoma
T-47D breast = tested on: T-47D breast
SW-620 colon = tested on: SW-620 colon
UACC-257 melanoma = tested on: UACC-257 melanoma
K-562 leukemia = tested on: K-562 leukemia
NCI-H23 lung = tested on: NCI-H23 lung
M14 melanoma = tested on: M14 melanoma
SNB-75 CNS = tested on: SNB-75 CNS
SK-OV-3 ovarian = tested on: SK-OV-3 ovarian
IGROV1 ovarian = tested on: IGROV1 ovarian
MDA-MB-435 = tested on: MDA-MB-435
MDA-N = tested on: MDA-N
NCI-H460 lung = tested on: NCI-H460 lung
SF-295 CNS = tested on: SF-295 CNS
SK-MEL-28 melanoma = tested on: SK-MEL-28 melanoma
EKVX NSCLC = tested on: EKVX NSCLC
MALME-3M melanoma = tested on: MALME-3M melanoma
A498 renal = tested on: A498 renal
HOP-62 NSCLC = tested on: HOP-62 NSCLC
CAKI-1 renal = tested on: CAKI-1 renal
ACHN renal = tested on: ACHN renal
HS 578T breast = tested on: HS 578T breast
A549 NSCLC = tested on: A549 NSCLC
NCI/ADR-RES ovarian = tested on: NCI/ADR-RES ovarian
786-0 renal = tested on: 786-0 renal
TK-10 renal = tested on: TK-10 renal
HCC-2998 colon = tested on: HCC-2998 colon
DU-145 prostate = tested on: DU-145 prostate
KM12 colon = tested on: KM12 colon
LOX IMVI melanoma = tested on: LOX IMVI melanoma
SR leukemia = tested on: SR leukemia
OVCAR-4 ovarian = tested on: OVCAR-4 ovarian
OVCAR-3 ovarian = tested on: OVCAR-3 ovarian
U251 CNS = tested on: U251 CNS
HCT-116 colon = tested on: HCT-116 colon
HL-60(TB) leukemia = tested on: HL-60(TB) leukemia
CCRF-CEM leukemia = tested on: CCRF-CEM leukemia
NCI-H226 lung = tested on: NCI-H226 lung
SF-539 CNS = tested on: SF-539 CNS
MOLT-4 leukemia = tested on: MOLT-4 leukemia
HT29 colon = tested on: HT29 colon

## O=C(O)Cc1ccc2nc(COC(=O)c3ccccc3)sc2c1
BT-549 breast
  TGI: > 100 µM
HOP-92 NSCLC
  TGI: > 100 µM
HCT-15 colon
  TGI: > 100 µM
OVCAR-8 ovarian
  TGI: > 100 µM
OVCAR-5 ovarian
  TGI: > 100 µM
MCF7 breast
  TGI: > 100 µM
SK-MEL-5 melanoma
  TGI: > 100 µM
SN12C renal
  TGI: > 100 µM
SF-268 CNS
  TGI: > 100 µM
PC-3 prostate
  TGI: > 100 µM
SNB-19 CNS
  TGI: > 100 µM
COLO 205 colon
  TGI: > 100 µM
MDA-MB-231 breast
  TGI: > 100 µM
NCI-H522 lung
  TGI: > 100 µM
RPMI-8226 leukemia
  TGI: > 100 µM
UO-31 renal
  TGI: > 100 µM
RXF 393 renal
  TGI: > 100 µM
UACC-62 melanoma
  TGI: > 100 µM
SK-MEL-2 melanoma
  TGI: > 100 µM
T-47D breast
  TGI: > 100 µM
SW-620 colon
  TGI: > 100 µM
UACC-257 melanoma
  TGI: > 100 µM
K-562 leukemia
  TGI: > 100 µM
NCI-H23 lung
  TGI: > 100 µM
M14 melanoma
  TGI: > 100 µM
SNB-75 CNS
  TGI: > 100 µM
SK-OV-3 ovarian
  TGI: > 100 µM
IGROV1 ovarian
  TGI: > 100 µM
MDA-MB-435
  TGI: > 100 µM
MDA-N
  TGI: > 100 µM
NCI-H460 lung
  TGI: > 100 µM
SF-295 CNS
  TGI: > 100 µM
SK-MEL-28 melanoma
  TGI: > 100 µM
EKVX NSCLC
  TGI: > 100 µM
MALME-3M melanoma
  TGI: > 100 µM
A498 renal
  TGI: > 100 µM
HOP-62 NSCLC
  TGI: > 100 µM
CAKI-1 renal
  TGI: > 100 µM
ACHN renal
  TGI: > 100 µM
HS 578T breast
  TGI: > 100 µM
A549 NSCLC
  TGI: > 100 µM
NCI/ADR-RES ovarian
  TGI: > 100 µM
786-0 renal
  TGI: > 100 µM
TK-10 renal
  TGI: > 100 µM
HCC-2998 colon
  TGI: > 100 µM
DU-145 prostate
  TGI: > 100 µM
KM12 colon
  TGI: > 100 µM
LOX IMVI melanoma
  TGI: > 100 µM
SR leukemia
  TGI: > 100 µM
OVCAR-4 ovarian
  TGI: > 100 µM
OVCAR-3 ovarian
  TGI: > 100 µM
U251 CNS
  TGI: > 100 µM
HCT-116 colon
  TGI: > 100 µM

## O=c1c2cc(I)ccc2[nH]c(=S)n1Cc1ccccc1
BT-549 breast
  TGI: 44.6 µM
HOP-92 NSCLC
  TGI: 63.2 µM
HCT-15 colon
  TGI: > 100 µM
OVCAR-8 ovarian
  TGI: > 100 µM
OVCAR-5 ovarian
  TGI: > 100 µM
MCF7 breast
  TGI: > 100 µM
SK-MEL-5 melanoma
  TGI: > 100 µM
SN12C renal
  TGI: > 100 µM
SF-268 CNS
  TGI: 57.5 µM
PC-3 prostate
  TGI: > 100 µM
SNB-19 CNS
  TGI: 98.9 µM
COLO 205 colon
  TGI: > 100 µM
MDA-MB-231 breast
  TGI: 66.3 µM
NCI-H522 lung
  TGI: 42.9 µM
HL-60(TB) leukemia
  TGI: 28.5 µM
RPMI-8226 leukemia
  TGI: > 100 µM
UO-31 renal
  TGI: 1.83 µM
RXF 393 renal
  TGI: 78 µM
UACC-62 melanoma
  TGI: > 100 µM
SK-MEL-2 melanoma
  TGI: 56 µM
T-47D breast
  TGI: > 100 µM
SW-620 colon
  TGI: > 100 µM
UACC-257 melanoma
  TGI: > 100 µM
K-562 leukemia
  TGI: > 100 µM
NCI-H23 lung
  TGI: > 100 µM
M14 melanoma
  TGI: > 100 µM
SNB-75 CNS
  TGI: 54.4 µM
SK-OV-3 ovarian
  TGI: > 100 µM
IGROV1 ovarian
  TGI: 30.3 µM
CCRF-CEM leukemia
  TGI: 23.1 µM
MDA-MB-435
  TGI: > 100 µM
MDA-N
  TGI: > 100 µM
NCI-H226 lung
  TGI: > 100 µM
NCI-H460 lung
  TGI: > 100 µM
SF-295 CNS
  TGI: > 100 µM
SK-MEL-28 melanoma
  TGI: > 100 µM
EKVX NSCLC
  TGI: 35.4 µM
A498 renal
  TGI: 54.3 µM
HOP-62 NSCLC
  TGI: 63 µM
ACHN renal
  TGI: > 100 µM
HS 578T breast
  TGI: 58.9 µM
SF-539 CNS
  TGI: 33.4 µM
MOLT-4 leukemia
  TGI: > 100 µM
A549 NSCLC
  TGI: > 100 µM
NCI/ADR-RES ovarian
  TGI: > 100 µM
786-0 renal
  TGI: 63 µM
TK-10 renal
  TGI: 42 µM
HCC-2998 colon
  TGI: > 100 µM
DU-145 prostate
  TGI: > 100 µM
HT29 colon
  TGI: > 100 µM
KM12 colon
  TGI: > 100 µM
LOX IMVI melanoma
  TGI: > 100 µM
SR leukemia
  TGI: > 100 µM
OVCAR-4 ovarian
  TGI: > 100 µM
OVCAR-3 ovarian
  TGI: > 100 µM
U251 CNS
  TGI: > 100 µM
HCT-116 colon
  TGI: > 100 µM
